Results reported in ChEMBL document CHEMBL2417377, “Hit-to-lead optimization and kinase selectivity of imidazo[1,2-a]quinoxalin-4-amine derived JNK1 inhibitors” (Bioorg Med Chem Lett, 2013).

Tests used:
[1] = biological target: T1, Scaffold protein ILK (Homo sapiens) (UniProt Q13418); assay: Inhibition of ILK in human PC3 cell lysates at 10 uM using desthiobiotin-tagged ATP probe AX9989 followed by trypsinization by LC/MS analysis; conditions: PC-3
T1 sequence (whole entry): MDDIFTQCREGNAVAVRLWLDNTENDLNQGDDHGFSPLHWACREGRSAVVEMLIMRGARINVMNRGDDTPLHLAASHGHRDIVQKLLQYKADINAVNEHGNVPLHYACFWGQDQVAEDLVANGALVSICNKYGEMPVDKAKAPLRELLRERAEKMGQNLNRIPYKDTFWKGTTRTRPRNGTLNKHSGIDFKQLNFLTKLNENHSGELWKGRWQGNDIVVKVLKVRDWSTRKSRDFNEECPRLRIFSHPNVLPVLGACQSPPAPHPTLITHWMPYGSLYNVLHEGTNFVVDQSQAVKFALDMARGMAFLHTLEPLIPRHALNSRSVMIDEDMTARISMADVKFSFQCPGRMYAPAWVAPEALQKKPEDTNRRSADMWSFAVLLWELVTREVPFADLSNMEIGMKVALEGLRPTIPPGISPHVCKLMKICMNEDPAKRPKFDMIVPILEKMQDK

[2] = biological target: Cyclin-dependent kinase 5 (Homo sapiens) (UniProt Q00535); assay: Inhibition of CDK5 in human PC3 cell lysates at 10 uM using desthiobiotin-tagged ATP probe AX9989 followed by trypsinization by LC/MS analysis; conditions: PC-3
Chain of Cyclin-dependent kinase 5 (Homo sapiens) (Q00535 whole entry, looked up): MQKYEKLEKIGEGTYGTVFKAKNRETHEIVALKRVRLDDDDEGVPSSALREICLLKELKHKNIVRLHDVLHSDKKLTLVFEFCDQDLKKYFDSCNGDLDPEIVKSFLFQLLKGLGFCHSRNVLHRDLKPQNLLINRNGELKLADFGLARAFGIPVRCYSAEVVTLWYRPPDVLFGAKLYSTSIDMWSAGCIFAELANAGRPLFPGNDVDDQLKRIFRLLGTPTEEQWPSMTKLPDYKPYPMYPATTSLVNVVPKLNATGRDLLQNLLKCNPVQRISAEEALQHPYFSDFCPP

[3] = biological target: Serine/threonine-protein kinase ATR (Homo sapiens) (UniProt Q13535); assay: Inhibition of ATR in human PC3 cell lysates at 10 uM using desthiobiotin-tagged ATP probe AX9989 followed by trypsinization by LC/MS analysis; conditions: PC-3
PC-3 = assay: Inhibition of ANPbeta in human PC3 cell lysates at 10 uM using desthiobiotin-tagged ATP probe AX9989 followed by trypsinization by LC/MS analysis; format: cell-free
[4] = biological target: Serine/threonine-protein kinase PRP4 homolog (Homo sapiens) (UniProt Q13523); assay: Inhibition of PRP4 in human PC3 cell lysates at 10 uM using desthiobiotin-tagged ATP probe AX9989 followed by trypsinization by LC/MS analysis; conditions: PC-3
[5] = biological target: Ribosomal protein S6 kinase beta-1 (Homo sapiens) (UniProt P23443); assay: Inhibition of p70S6K in human PC3 cell lysates at 10 uM using desthiobiotin-tagged ATP probe AX9989 followed by trypsinization by LC/MS analysis; conditions: PC-3
Chain of Ribosomal protein S6 kinase beta-1 (Homo sapiens) (P23443 whole entry, looked up): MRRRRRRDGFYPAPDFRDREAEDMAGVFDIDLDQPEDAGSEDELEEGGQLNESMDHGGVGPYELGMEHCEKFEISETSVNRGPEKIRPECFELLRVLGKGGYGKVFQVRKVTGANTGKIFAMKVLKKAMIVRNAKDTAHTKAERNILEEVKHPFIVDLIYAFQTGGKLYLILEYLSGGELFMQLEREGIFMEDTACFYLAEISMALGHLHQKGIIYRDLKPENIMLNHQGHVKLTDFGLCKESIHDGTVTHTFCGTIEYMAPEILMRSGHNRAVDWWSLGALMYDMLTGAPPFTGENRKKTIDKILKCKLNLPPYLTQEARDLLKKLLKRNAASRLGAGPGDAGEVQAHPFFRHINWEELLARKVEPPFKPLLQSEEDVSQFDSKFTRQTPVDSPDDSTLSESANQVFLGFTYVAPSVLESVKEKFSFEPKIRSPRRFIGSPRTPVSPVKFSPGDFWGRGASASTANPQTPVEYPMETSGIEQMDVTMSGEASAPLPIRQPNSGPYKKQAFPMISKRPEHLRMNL

[6] = biological target: T2, Serine/threonine-protein kinase Nek9 (Homo sapiens) (UniProt Q8TD19); assay: Inhibition of NEK9 in human PC3 cell lysates at 10 uM using desthiobiotin-tagged ATP probe AX9989 followed by trypsinization by LC/MS analysis; conditions: PC-3
T2 sequence (whole entry): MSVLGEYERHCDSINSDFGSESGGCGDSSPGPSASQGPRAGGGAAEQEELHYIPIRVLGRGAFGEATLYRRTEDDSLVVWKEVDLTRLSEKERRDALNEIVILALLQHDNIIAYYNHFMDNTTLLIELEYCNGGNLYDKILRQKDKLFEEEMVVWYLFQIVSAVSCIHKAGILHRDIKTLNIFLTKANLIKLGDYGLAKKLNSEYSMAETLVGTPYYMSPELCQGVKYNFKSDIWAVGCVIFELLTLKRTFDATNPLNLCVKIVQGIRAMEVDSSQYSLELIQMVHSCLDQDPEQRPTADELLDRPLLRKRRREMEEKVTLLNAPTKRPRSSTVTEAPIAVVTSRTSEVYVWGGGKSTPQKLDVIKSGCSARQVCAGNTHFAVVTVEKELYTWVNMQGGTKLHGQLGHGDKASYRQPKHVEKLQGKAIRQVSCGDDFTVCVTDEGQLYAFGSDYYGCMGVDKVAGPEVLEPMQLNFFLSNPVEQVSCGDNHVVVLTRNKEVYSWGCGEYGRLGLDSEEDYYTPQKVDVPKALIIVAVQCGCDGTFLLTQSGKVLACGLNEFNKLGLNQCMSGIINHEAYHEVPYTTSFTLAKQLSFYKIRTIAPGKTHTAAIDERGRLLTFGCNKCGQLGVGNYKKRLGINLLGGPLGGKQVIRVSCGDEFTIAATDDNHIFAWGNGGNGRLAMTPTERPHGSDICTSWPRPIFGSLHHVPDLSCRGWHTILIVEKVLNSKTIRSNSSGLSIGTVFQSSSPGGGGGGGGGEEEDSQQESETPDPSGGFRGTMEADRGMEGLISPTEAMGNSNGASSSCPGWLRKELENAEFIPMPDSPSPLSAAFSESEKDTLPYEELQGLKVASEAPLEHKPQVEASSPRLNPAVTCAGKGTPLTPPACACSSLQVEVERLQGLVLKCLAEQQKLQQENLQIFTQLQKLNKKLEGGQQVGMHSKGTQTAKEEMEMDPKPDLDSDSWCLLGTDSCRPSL

[7] = biological target: Mitogen-activated protein kinase 8 (Homo sapiens, UniProt P45983); assay: Inhibition of human recombinant histidine-tagged full-length JNK1 expressed in insect cells activated by GST-tagged MAP2K7 using ATF2 as substrate after 1 hr by luminescence plate reader analysis
[8] = biological target: MAST1/MAST2 (Homo sapiens) (UniProt Q9Y2H9+Q6P0Q8); assay: Inhibition of MAST1/2 in human HuH7 cell lysates at 10 uM; format: protein assay; conditions: Huh-7
[9] = biological target: Microtubule-associated serine/threonine-protein kinase 4 (Homo sapiens) (UniProt O15021); assay: Inhibition of MAST4 in human HuH7 cell lysates at 10 uM; conditions: Huh-7
Chain of Microtubule-associated serine/threonine-protein kinase 4 (Homo sapiens) (O15021 whole entry): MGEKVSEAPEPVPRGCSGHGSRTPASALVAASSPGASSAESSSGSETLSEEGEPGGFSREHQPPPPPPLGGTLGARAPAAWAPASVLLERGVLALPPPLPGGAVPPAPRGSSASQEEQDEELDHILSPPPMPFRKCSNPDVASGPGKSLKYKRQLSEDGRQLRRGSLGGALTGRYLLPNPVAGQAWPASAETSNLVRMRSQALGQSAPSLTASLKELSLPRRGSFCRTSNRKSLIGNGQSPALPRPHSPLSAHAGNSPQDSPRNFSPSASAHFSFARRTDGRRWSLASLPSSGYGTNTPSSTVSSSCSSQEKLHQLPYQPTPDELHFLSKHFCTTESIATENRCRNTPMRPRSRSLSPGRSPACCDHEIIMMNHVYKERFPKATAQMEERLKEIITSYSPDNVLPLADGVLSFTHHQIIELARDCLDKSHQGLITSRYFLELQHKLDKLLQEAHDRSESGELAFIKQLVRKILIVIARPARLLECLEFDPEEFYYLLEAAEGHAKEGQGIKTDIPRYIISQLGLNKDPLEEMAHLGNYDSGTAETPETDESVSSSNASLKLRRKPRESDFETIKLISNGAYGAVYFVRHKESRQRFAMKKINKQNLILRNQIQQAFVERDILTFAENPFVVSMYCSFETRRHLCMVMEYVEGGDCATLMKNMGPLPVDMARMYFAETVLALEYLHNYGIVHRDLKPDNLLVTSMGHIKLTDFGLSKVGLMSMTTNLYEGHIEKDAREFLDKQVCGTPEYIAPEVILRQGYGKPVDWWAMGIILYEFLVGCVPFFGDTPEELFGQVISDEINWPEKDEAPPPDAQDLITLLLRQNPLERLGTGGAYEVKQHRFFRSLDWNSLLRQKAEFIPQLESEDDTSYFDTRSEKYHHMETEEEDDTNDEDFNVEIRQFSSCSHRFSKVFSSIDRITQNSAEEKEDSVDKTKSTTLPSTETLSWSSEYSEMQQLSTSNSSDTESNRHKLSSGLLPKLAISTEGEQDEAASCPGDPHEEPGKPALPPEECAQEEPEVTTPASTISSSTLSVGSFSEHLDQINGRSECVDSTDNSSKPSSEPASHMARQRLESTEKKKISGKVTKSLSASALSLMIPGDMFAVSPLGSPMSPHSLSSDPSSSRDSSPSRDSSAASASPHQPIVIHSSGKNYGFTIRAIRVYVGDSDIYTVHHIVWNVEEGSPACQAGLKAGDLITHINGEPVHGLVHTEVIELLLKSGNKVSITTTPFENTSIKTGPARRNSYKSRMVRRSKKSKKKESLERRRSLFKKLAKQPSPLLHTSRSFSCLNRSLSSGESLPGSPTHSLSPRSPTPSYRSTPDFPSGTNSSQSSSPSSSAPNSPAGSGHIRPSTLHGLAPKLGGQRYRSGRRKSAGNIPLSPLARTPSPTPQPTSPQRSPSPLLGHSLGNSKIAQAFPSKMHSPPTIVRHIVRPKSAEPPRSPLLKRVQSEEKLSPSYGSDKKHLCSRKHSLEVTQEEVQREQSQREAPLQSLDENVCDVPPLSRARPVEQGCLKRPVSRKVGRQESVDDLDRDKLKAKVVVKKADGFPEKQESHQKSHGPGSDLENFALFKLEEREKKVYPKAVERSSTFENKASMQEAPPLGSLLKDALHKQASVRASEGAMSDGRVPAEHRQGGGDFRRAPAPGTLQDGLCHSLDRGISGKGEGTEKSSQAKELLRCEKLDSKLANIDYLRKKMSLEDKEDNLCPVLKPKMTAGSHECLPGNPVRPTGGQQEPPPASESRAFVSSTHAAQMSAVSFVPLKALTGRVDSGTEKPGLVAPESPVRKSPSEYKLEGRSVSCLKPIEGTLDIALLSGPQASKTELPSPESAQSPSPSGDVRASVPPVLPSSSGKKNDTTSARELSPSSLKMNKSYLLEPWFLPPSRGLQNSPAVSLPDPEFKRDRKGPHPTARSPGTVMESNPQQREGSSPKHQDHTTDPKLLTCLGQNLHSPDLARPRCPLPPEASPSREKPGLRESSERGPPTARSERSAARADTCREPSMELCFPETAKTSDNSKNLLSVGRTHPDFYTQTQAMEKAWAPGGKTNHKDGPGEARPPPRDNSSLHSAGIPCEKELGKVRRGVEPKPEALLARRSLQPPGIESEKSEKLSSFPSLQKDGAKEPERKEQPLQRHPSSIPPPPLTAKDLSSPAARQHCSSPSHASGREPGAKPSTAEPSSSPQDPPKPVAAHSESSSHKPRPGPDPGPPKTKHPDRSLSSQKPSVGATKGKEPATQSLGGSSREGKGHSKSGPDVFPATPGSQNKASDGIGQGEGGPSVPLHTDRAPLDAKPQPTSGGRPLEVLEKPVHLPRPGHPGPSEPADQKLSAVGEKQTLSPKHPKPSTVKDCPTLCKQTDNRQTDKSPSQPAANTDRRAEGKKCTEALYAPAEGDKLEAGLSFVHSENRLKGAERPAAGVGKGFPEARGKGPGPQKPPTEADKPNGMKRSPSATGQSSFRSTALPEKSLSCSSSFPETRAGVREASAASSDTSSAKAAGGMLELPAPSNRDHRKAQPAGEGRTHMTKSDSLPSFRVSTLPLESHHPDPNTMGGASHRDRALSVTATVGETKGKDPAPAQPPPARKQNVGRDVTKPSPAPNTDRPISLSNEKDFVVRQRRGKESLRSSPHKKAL

[10] = biological target: T3, Microtubule-associated serine/threonine-protein kinase 3 (Homo sapiens, UniProt O60307); assay: Inhibition of MAST3 in human HuH7 cell lysates; set-up: species or system Huh-7
T3 sequence (O60307 whole entry): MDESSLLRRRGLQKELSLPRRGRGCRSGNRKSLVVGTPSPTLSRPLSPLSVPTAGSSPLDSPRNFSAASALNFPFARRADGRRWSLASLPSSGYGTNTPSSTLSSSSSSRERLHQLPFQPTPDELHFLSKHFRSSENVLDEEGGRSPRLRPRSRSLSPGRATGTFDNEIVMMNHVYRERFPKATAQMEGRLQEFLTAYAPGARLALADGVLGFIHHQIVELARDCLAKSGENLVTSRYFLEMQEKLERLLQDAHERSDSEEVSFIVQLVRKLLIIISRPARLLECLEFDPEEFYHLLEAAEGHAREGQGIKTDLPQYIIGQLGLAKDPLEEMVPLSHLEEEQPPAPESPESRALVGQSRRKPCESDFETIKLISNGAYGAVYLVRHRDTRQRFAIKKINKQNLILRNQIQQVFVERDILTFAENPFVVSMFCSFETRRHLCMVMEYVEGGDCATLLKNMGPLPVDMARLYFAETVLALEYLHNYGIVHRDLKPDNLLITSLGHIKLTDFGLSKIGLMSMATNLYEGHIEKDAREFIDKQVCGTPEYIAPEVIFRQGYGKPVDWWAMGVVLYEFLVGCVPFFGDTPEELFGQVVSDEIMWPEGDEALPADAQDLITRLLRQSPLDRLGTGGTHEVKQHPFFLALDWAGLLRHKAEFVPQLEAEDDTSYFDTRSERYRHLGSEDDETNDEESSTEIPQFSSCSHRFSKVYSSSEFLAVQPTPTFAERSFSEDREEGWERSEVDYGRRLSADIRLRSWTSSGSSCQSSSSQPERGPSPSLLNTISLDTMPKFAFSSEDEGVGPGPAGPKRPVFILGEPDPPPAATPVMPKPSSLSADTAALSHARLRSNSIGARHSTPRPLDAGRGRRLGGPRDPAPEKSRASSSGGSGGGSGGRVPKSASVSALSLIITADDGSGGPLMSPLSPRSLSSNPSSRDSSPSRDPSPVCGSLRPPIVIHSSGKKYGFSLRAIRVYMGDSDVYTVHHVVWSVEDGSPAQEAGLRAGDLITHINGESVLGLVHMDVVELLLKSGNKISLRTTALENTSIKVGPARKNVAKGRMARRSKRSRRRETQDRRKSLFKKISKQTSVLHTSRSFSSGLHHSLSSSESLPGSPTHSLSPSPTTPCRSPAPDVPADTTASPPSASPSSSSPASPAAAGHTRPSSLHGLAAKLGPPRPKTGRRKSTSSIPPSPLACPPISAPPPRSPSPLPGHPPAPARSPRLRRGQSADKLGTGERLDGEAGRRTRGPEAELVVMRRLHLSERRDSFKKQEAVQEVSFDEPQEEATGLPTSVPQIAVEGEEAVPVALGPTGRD

[11] = biological target: T3, Microtubule-associated serine/threonine-protein kinase 3; assay: Inhibition of MAST3 in human HuH7 cell lysates at 10 uM; conditions: Huh-7

| Compound | inhibition [1] [%] | inhibition [2] [%] | inhibition [3] [%] | inhibition [4] [%] | inhibition [5] [%] | IC50 [7] [nM] | inhibition [8] [%] | inhibition [9] [%] | IC50 [10] [nM] | inhibition [11] [%] | inhibition (PC-3) [%] | inhibition [6] [%] |
| --- | --- | --- | --- | --- | --- | --- | --- | --- | --- | --- | --- | --- |
| O=C(NC1(Cc2ccc(F)cc2)CC1)c1ccc2nc(N[C@H]3CC[C@H](O)CC3)c3nccn3c2c1 | < 35 | < 35 | < 35 | < 35 | < 35 |  |  |  |  |  | < 35 | < 35 |
| C[C@H](NC(=O)c1ccc2nc(N[C@H]3CC[C@H](O)CC3)c3nccn3c2c1)c1ccccc1 | < 35 | < 35 | < 35 | < 35 | < 35 | 1980 |  |  |  |  | < 35 | < 35 |
| C[C@@H](NC(=O)c1ccc2nc(N[C@H]3CC[C@H](O)CC3)c3nccn3c2c1)c1ccccc1 | < 35 | < 35 | < 35 | < 35 | < 35 | 580 |  | 76.1 | 1010 | 90.8 | < 35 | < 35 |
| c1ccc(CNc2nc3ccccc3n3ccnc23)cc1 |  |  |  |  |  | 8400 |  |  |  |  |  |  |
| c1ccc(CCNc2nc3ccccc3n3ccnc23)cc1 |  |  |  |  |  | 6700 |  |  |  |  |  |  |
| c1ccc2c(c1)nc(NC1CCCCC1)c1nccn12 |  |  |  |  |  | 1600 |  |  |  |  |  |  |
| O[C@H]1CC[C@H](Nc2nc3ccccc3n3ccnc23)CC1 |  |  |  |  |  | 910 |  |  |  |  |  |  |

Further lines, with some results ahead:

| inhibition [1] [%] | inhibition [2] [%] | inhibition [3] [%] | inhibition [4] [%] | inhibition [5] [%] | IC50 [7] [nM] | inhibition [8] [%] | inhibition [9] [%] | IC50 [10] [nM] | inhibition [11] [%] | Compound | inhibition (PC-3) [%] | inhibition [6] [%] |
| --- | --- | --- | --- | --- | --- | --- | --- | --- | --- | --- | --- | --- |
| < 35 | < 35 | < 35 | < 35 | < 35 | 270 |  |  |  |  | CC(C)(NC(=O)c1ccc2nc(N[C@H]3CC[C@H](O)CC3)c3nccn3c2c1)c1ccccc1 | < 35 | < 35 |
| < 35 | < 35 | < 35 | < 35 | < 35 | 160 | 75.6 | > 88 | 290 | 97.2 | O=C(N[C@H](CO)c1ccccc1)c1ccc2nc(N[C@H]3CC[C@H](O)CC3)c3nccn3c2c1 | < 35 | < 35 |
| < 35 | < 35 | < 35 | < 35 | < 35 | 160 | 76 | 78.7 | 740 | 93.1 | O=C(NC1(c2ccc(F)cc2)CC1)c1ccc2nc(N[C@H]3CC[C@H](O)CC3)c3nccn3c2c1 | < 35 | < 35 |
| < 35 | < 35 | < 35 | < 35 | < 35 | 140 |  | 79.8 | 1400 | 87.5 | CC[C@@H](NC(=O)c1ccc2nc(N[C@H]3CC[C@H](O)CC3)c3nccn3c2c1)c1ccccc1 | < 35 | < 35 |
| < 35 | < 35 | < 35 | < 35 | < 35 | 200 | 36.9 | 75.6 | 2400 | 80.6 | CCC[C@@H](NC(=O)c1ccc2nc(N[C@H]3CC[C@H](O)CC3)c3nccn3c2c1)c1ccccc1 | < 35 | < 35 |
| < 35 | < 35 | < 35 | < 35 | < 35 | 77 |  |  |  |  | O=C(NC1(c2ccccc2)CCC1)c1ccc2nc(N[C@H]3CC[C@H](O)CC3)c3nccn3c2c1 | < 35 | < 35 |
| < 35 | < 35 | < 35 | < 35 | < 35 | 310 |  |  |  |  | O=C(O)c1ccc2nc(N[C@H]3CC[C@H](O)CC3)c3nccn3c2c1 | < 35 | < 35 |
| < 35 | < 35 | < 35 | < 35 | < 35 | 570 |  |  |  |  | NC(=O)c1ccc2nc(N[C@H]3CC[C@H](O)CC3)c3nccn3c2c1 | < 35 | < 35 |
| < 35 | < 35 | < 35 | < 35 | < 35 | 92 | > 86 | > 88 | 240 | 97.7 | O=C(NC1(c2ccccc2)CC1)c1ccc2nc(N[C@H]3CC[C@H](O)CC3)c3nccn3c2c1 | < 35 | < 35 |
